According to PubChem BioAssay (NCI):
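Dose response: 5 concentrations. Exposure: 48 h. Format: 96-well plates. Endpoint: linear interpolation; highest concentration if not reached. GI50 is the concentration that inhibits growth by half. Definition used: TGI = concentration required for complete inhibition of growth.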

Legend:
Assay in all cases: NCI anticancer screen, dose series, 48 h
[1] = system: LOX IMVI melanoma
[2] = system: PC-3 prostate
[3] = system: OVCAR-3 ovarian
[4] = system: RPMI-8226 leukemia
[5] = system: HL-60(TB) leukemia
[6] = system: MDA-MB-435
[7] = system: A549 NSCLC
[8] = system: K-562 leukemia
[9] = system: HS 578T breast
[10] = system: RXF 393 renal
[11] = system: OVCAR-8 ovarian
[12] = system: NCI-H23 lung
[13] = system: EKVX NSCLC
[14] = system: SF-268 CNS
[15] = system: HT29 colon
[16] = system: NCI-H226 lung
[17] = system: HOP-92 NSCLC
[18] = system: CCRF-CEM leukemia
[19] = system: SNB-75 CNS
[20] = system: U251 CNS
[21] = system: 786-0 renal
[22] = system: COLO 205 colon
[23] = system: A498 renal
[24] = system: UACC-257 melanoma
[25] = system: HCC-2998 colon
[26] = system: IGROV1 ovarian
[27] = system: HCT-116 colon

## CC1(C)OC2=C(CC1Br)C(=O)C(=O)c1ccccc12 (centres undefined)
[1]
  GI50: 1000 nM
  TGI: 3390 nM
[2]
  GI50: 2130 nM
  TGI: 4950 nM
[3]
  GI50: 1600 nM
  TGI: 2980 nM
[4]
  GI50: 2650 nM
  TGI: 6820 nM
[5]
  GI50: 1800 nM
  TGI: 4570 nM
[6]
  GI50: 1690 nM
  TGI: 3350 nM
[7]
  GI50: 2410 nM
  TGI: 4870 nM
[8]
  GI50: 2230 nM
  TGI: 4890 nM
[9]
  GI50: 2650 nM
  TGI: 7690 nM
[10]
  GI50: 1900 nM
  TGI: 3330 nM
[11]
  GI50: 2020 nM
  TGI: 3890 nM
[12]
  GI50: 1660 nM
  TGI: 3750 nM
[13]
  GI50: 1710 nM
  TGI: 3470 nM
[14]
  GI50: 1750 nM
  TGI: 3320 nM
[15]
  GI50: 2400 nM
  TGI: 5250 nM
[16]
  GI50: 1700 nM
  TGI: 3120 nM
[17]
  GI50: 2330 nM
  TGI: 3970 nM
[18]
  GI50: 3560 nM
  TGI: > 100000 nM
[19]
  GI50: 1820 nM
  TGI: 3260 nM
[20]
  GI50: 1870 nM
  TGI: 3870 nM
[21]
  GI50: 1910 nM
  TGI: 3430 nM
[22]
  GI50: 1890 nM
  TGI: 3390 nM
[23]
  GI50: 1430 nM
  TGI: 3070 nM
[24]
  GI50: 1760 nM
  TGI: 3270 nM
[25]
  GI50: 1690 nM
  TGI: 3120 nM
[26]
  GI50: 2180 nM
  TGI: 4120 nM
[27]
  GI50: 1700 nM
  TGI: 3410 nM
